Measurements published in patent US20260144796A1, “Compounds and Methods for Improving Health” (Acurx Pharmaceuticals, Inc., priority 2022, published 2026).
Values after ≈ are worked out from the molar mass of the structure shown. Read-outs that look alike come from different tables or passages of the source.

Key:
gut microbiome = experiment: Phase 2a CDI clinical trial, gut microbiome (metagenomics); type: in vivo, human; conditions: CDI patients; for Proportion of isolated Firmicutes, Peptostreptococcaceae: baseline 2%; for Proportion of isolated Firmicutes, Other: baseline 5%; for Proportion of isolated Firmicutes, Ruminococcaceae: baseline 7%; for Proportion of isolated Firmicutes, Streptococcaceae: baseline 13%; for Proportion of isolated Firmicutes, Erysipelotrichaceae: baseline 18%; for Proportion of isolated Firmicutes, Lachnospiraceae: baseline 30%
Method: Phase 2a of this trial was an open label cohort of 10 subjects from study centers in the United States. In this cohort, 10 patients with diarrhea caused by mild or moderate C. difficile diagnosed via toxin EIA+ were treated with ibezapolstat 450 mg orally, twice daily for 10 days. All patients were followed for recurrence for 28±2 days. Stool was collected during course of therapy and at follow up. Patient fecal samples were evaluated for C. difficile culture and microbiome changes. […] Favorable microbiome changes included overgrowth of Actinobacteria and Firmicutes phylum species while on therapy. These findings support that microbiome effects may be predictive of beneficial patient outcomes including low rates of recurrence.
Phase 2a of this trial was an open label cohort of 10 subjects from study centers in the United States. In this cohort, 10 patients with diarrhea caused by mild or moderate C. difficile diagnosed via toxin EIA+ were treated with ibezapolstat 450 mg orally, twice daily for 10 days. Stool was collected during the course of therapy and at follow up.
Stool DNA was extracted using a DNAeasy Power Soil Pro kit (Qiagen, catalog number 1288-100) in a QiaCube automated DNA extraction system as previously described. (Garey K W, et al. A randomized, double-blind, placebo-controlled, single and multiple ascending dose Phase 1 study to determine the safety, pharmacokinetics and food and faecal microbiome effects of ibezapolstat administered orally to healthy subjects. J Antimicrob Chemother 2020; 75 (12): 3635-3643). Shotgun metagenomic sequencing was carried out at the University of Houston Sequencing and Gene Editing Core (Houston, TX USA) using the Nextera DNA Flex Library Prep Kit for DNA library preparation and an Illumina NextSeq 500 platform for sequencing. CLC Genomic Workbench version 12 (Qiagen) was used for metagenomic assembly and creation of the abundance table.
16S rRNA sequencing was performed to characterize microbial taxonomy as described in Gonzales-Luna 2021. The V3-V4 region of the 16S rRNA gene was sequenced using an Illumina-based sequencing platform with a minimum of 15,000 reads per sample to assess the gut microbiome community structure. Quality filtered sequence reads with at least 97% similarity were clustered into Operational Taxonomic Units (OTUs) and representative sequences from each OTU were assigned a taxonomic identity at the species level by searching against the NCBI 16S rRNA sequence database (release date Sep. 1, 2018) using NCBI BLAST+ package v2.8.1 2018.
The DNA extracted from fecal samples previously used for 16S rRNA sequencing was shotgun metagenome sequenced using an Illumina-based platform for analysis of microbiome functional genes. The functional gene profiling of the shotgun metagenome was performed using HUMAnN2 v0.11.2 pipeline.35 In the preprocessing step, quality filtering of sequencing reads was performed and followed by screening and removal of contaminant host (human) reads. Trimmomatic v0.38 was used for the filtering and trimming of raw sequence data with the default cut-off settings. The reads were searched against a human genome database in paired-end mode using bowtie2 algorithm and were discarded if they were mapped to the database. To obtain the gene family profiles, these quality-controlled metagenome sequences were first searched against a nucleotide database (ChocoPhlAn) using bowtie2 and then against a protein database (UniRef90) using diamond. All the identified gene families were annotated using UniRef90 and pathways using MetaCyc identifiers.

[1] = test system: Erysipelatoclostridium ramosum; experiment: MIC determination, stool Firmicute isolates; type: cell-based; conditions: Thomasclavelia ramosa
[2] = test system: C. difficile biofilms (strains R20291, CD 630); experiment: C. difficile in vitro biofilm studies (MIC, MBIC, CFU/mL, Crystal Violet biomass); type: cell-based
Method: A basic flow chart outlining the experimental procedure used in these studies may be seen in FIG. 14. Briefly, C. difficile laboratory strain R20291 was grown in Brain heart infusion-supplemented (BHIS) medium. […] Biofilm formation was established via anaerobic incubation of the cultures at 37° C. for 24 hrs. Early biofilm formation was established at 4 hrs, whereas late biofilm formation was established at 24 hrs, 48 hrs, and 72 hrs. Following biofilm formation, the BHIS medium was removed and replaced with fresh media comprising no antibiotic (control), ibezapolstat (IBZ), Fidaxomicin (FDX), or metronidazole (MTZ). The cultures were then anaerobically incubated for 24 hrs or subjected to time course tests. Biofilm biomass was measured using Crystal Violet staining. […] Data was measured and recorded using Cytation 3 calibrated to read at A570. Data was analyzed by comparing percent growth of antibiotic treated cultures with controls.

Clostridium tertium = experiment: MIC determination, stool Firmicute isolates; type: cell-based
Enterococcus faecalis = experiment: MIC determination, stool Firmicute isolates; type: cell-based
[3] = test system: flagellar genes fliA, flgB, fliC in C. difficile strain CD 630; experiment: Flagellar gene expression by qRT-PCR
[4] = test system: C. difficile toxin A and B; experiment: Toxin production by ELISA; type: cell-based; conditions: for reduction of toxin levels (toxin A and B), normalized to controls: sub-inhibitory concentrations, 24 h
Method: Toxin production was assessed by ELISA (tgcBiomics) according to the manufacturer instructions.

Coprococcus sp = experiment: MIC determination, stool Firmicute isolates; type: cell-based; conditions: N=1
[5] = 450 mg orally twice daily 10 days, day 3
[6] = 450 mg orally twice daily 10 days, day 5
[7] = 450 mg orally twice daily 10 days, day 8
[8] = 450 mg orally twice daily 10 days, day 10
[9] = 450 mg orally twice daily 10 days, day 12

O=c1[nH]c(NCc2ccc(Cl)c(Cl)c2)nc2ncn(CCN3CCOCC3)c12 [Ibezapolstat, 2-((3,4-dichlorobenzyl)amino)-7-(2-morpholinoethyl)-1,7-dihydro-6H-purin-6-one]
Proportion of isolated Firmicutes, Eubacteriales Family XIII (gut microbiome; [5]): 2% | Proportion of isolated Firmicutes, Peptostreptococcaceae (gut microbiome; [5]): 1% | Proportion of isolated Firmicutes, Other (gut microbiome; [5]): 9% | Proportion of isolated Firmicutes, Ruminococcaceae (gut microbiome; [5]): 25% | Proportion of isolated Firmicutes, Streptococcaceae (gut microbiome; [5]): 3% | Proportion of isolated Firmicutes, Erysipelotrichaceae (gut microbiome; [5]): 24% | Proportion of isolated Firmicutes, Lachnospiraceae (gut microbiome; [5]): 37% | Proportion of isolated Firmicutes, Eubacteriales Family XIII (gut microbiome; [6]): 1% | Proportion of isolated Firmicutes, Other (gut microbiome; [6]): 10% | Proportion of isolated Firmicutes, Ruminococcaceae (gut microbiome; [6]): 38% | Proportion of isolated Firmicutes, Streptococcaceae (gut microbiome; [6]): 1% | Proportion of isolated Firmicutes, Erysipelotrichaceae (gut microbiome; [6]): 10% | Proportion of isolated Firmicutes, Lachnospiraceae (gut microbiome; [6]): 38% | Proportion of isolated Firmicutes, Eubacteriales Family XIII (gut microbiome; [7]): 3% | Proportion of isolated Firmicutes, Peptostreptococcaceae (gut microbiome; [7]): 5% | Proportion of isolated Firmicutes, Other (gut microbiome; [7]): 9% | Proportion of isolated Firmicutes, Ruminococcaceae (gut microbiome; [7]): 30% | Proportion of isolated Firmicutes, Streptococcaceae (gut microbiome; [7]): 4% | Proportion of isolated Firmicutes, Erysipelotrichaceae (gut microbiome; [7]): 9% | Proportion of isolated Firmicutes, Veillonellaceae (gut microbiome; 450 mg orally twice daily 10 days, day 8, baseline 19%): 5% | Proportion of isolated Firmicutes, Lachnospiraceae (gut microbiome; [7]): 33% | Proportion of isolated Firmicutes, Eubacteriales Family XIII (gut microbiome; [8]): 5% | Proportion of isolated Firmicutes, Peptostreptococcaceae (gut microbiome; [8]): 4% | Proportion of isolated Firmicutes, Other (gut microbiome; [8]): 8% | Proportion of isolated Firmicutes, Ruminococcaceae (gut microbiome; [8]): 26% | Proportion of isolated Firmicutes, Streptococcaceae (gut microbiome; [8]): 5% | Proportion of isolated Firmicutes, Erysipelotrichaceae (gut microbiome; [8]): 17% | Proportion of isolated Firmicutes, Lachnospiraceae (gut microbiome; [8]): 35% | Proportion of isolated Firmicutes, Eubacteriales Family XIII (gut microbiome; [9]): 4% | Proportion of isolated Firmicutes, Peptostreptococcaceae (gut microbiome; [9]): 6% | Proportion of isolated Firmicutes, Other (gut microbiome; [9]): 10% | Proportion of isolated Firmicutes, Ruminococcaceae (gut microbiome; [9]): 24% | Proportion of isolated Firmicutes, Streptococcaceae (gut microbiome; [9]): 2% | Proportion of isolated Firmicutes, Erysipelotrichaceae (gut microbiome; [9]): 6% | Proportion of isolated Firmicutes, Lachnospiraceae (gut microbiome; [9]): 44% | Actinobacteria abundance after starting treatment (gut microbiome; primarily Coriobacteriales): increased in abundance | MIC50 ([1]; N=5): 6.25 µg/mL (≈ 14.8 µM) | MIC ([1]; N=5, read-out: MIC Max): 100 µg/mL (≈ 236 µM) | MIC ([1]; N=5, read-out: MIC Min): 3.12 µg/mL (≈ 7.38 µM) | C. diff growth (CFU/mL) and biomass at sub-MIC compared to control ([2]; 0.4× MIC): reduced | growth in early biofilms at supra-MIC ([2]; 40× MIC, after 48 hours of treatment): eradicated growth | MBIC ([2]; C. diff. strain R20291, Minimum Biofilm Inhibitory Concentration): 4 µg/mL | MIC ([2]; Clostridioides difficile, C. diff. strain R20291, read-out: MIC): 4 µg/mL (≈ 9.45 µM) | MIC50 (Clostridium tertium): 12.5 µg/mL (≈ 29.5 µM) | MIC (Clostridium tertium; N=2, read-out: MIC Min): 3.12 µg/mL (≈ 7.38 µM) | MIC (Clostridium tertium; read-out: MIC Max): 12.5 µg/mL (≈ 29.5 µM) | MIC50 (Enterococcus faecalis): 12.5 µg/mL (≈ 29.5 µM) | MIC (Enterococcus faecalis; N=5, read-out: MIC Max): 50 µg/mL (≈ 118 µM) | MIC (Enterococcus faecalis; read-out: MIC Min): 12.5 µg/mL (≈ 29.5 µM) | reduction in motility and flagellar genes ([3]; 4-hour treatment with 0.25×MIC): up to 50% | flgB expression decreased versus non-treated control ([3]; CD 630, 0.5×MIC, 4 hours): about 30% | fliA expression attenuated versus non-treated control ([3]; CD 630, 0.5×MIC, 4 hours): about 60% | fliC expression decreased versus non-treated control ([3]; CD 630, 0.5×MIC, 4 hours): about 80% | decrease overall in flagellar gene expression ([3]; CD 630, sub-MIC (0.5×MIC), 4 hours, gluD control): 2-to-5 fold | total toxin A and B production ([4]; strain CD 630, 24 hours of treatment): decreases total toxin A and B production in strain CD 630 in a dose-dependent manner | reduction of toxin levels (toxin A and B), normalized to controls ([4]; strain CD 630): 55% | reduction of toxin levels (toxin A and B), normalized to controls ([4]; strain R20291): 60% | MIC50 (Coprococcus sp): 25 µg/mL (≈ 59.1 µM)
